Measured values as given in PubChem BioAssay AID248 (DTP/NCI, 2004).
Toxic doses and inconclusive results are not listed. Rule as the data show it: active = T/C of 150% or more; inactive = T/C below 125%.

System: L1210 leukemia ip in BDF1 mice, survival T/C
Experiment: NCI In Vivo Anticancer Drug Screen. Data for tumor model L1210 Leukemia (intraperitoneal) in B6D2F1 (BDF1) mice
Conditions: endpoint: mean survival time, higher = longer survival
Method in brief: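 Antitumor effect is assessed in tumor-bearing animals. Survival in the compound arm is compared with a vehicle-dosed control arm and expressed as their quotient.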

[1] = dose: 100.0 mg/kg/injection, schedule: Q01DX009 (ip), vehicle: saline
[2] = dose: 100.0 mg/kg/injection, schedule: Q04DX002 (ip), vehicle: saline with Tween-80
[3] = dose: 200.0 mg/kg/injection, schedule: Q04DX002 (ip), vehicle: saline with Tween-80
[4] = dose: 400.0 mg/kg/injection, schedule: Q04DX002 (ip), vehicle: saline with Tween-80
[5] = dose: 100.0 mg/kg/injection, schedule: Q01DX001 (ip), vehicle: other
[6] = dose: 12.5 mg/kg/injection, schedule: Q01DX009 (ip), vehicle: saline with Tween-80
[7] = dose: 100.0 mg/kg/injection, schedule: Q04DX003 (ip), vehicle: saline
[8] = dose: 100.0 mg/kg/injection, schedule: Q04DX003 (ip), vehicle: Klucel (hydroxypropylcellulose) (HPC)
[9] = dose: 200.0 mg/kg/injection, schedule: Q04DX003 (ip), vehicle: Klucel (hydroxypropylcellulose) (HPC)
[10] = dose: 400.0 mg/kg/injection, schedule: Q04DX003 (ip), vehicle: Klucel (hydroxypropylcellulose) (HPC)
[11] = dose: 50.0 mg/kg/injection, schedule: Q01DX009 (ip), vehicle: saline
[12] = dose: 100.0 mg/kg/injection, schedule: Q01DX009 (ip), vehicle: Klucel (hydroxypropylcellulose) (HPC)
[13] = dose: 200.0 mg/kg/injection, schedule: Q01DX009 (ip), vehicle: Klucel (hydroxypropylcellulose) (HPC)
[14] = dose: 400.0 mg/kg/injection, schedule: Q01DX009 (ip), vehicle: Klucel (hydroxypropylcellulose) (HPC)

Measured: T/C

CC(C)(C)S(=O)(=O)CCS(=O)(=O)C(C)(C)C
inactive: [1] 100 % of control | dose: 100.0 mg/kg/injection, schedule: Q04DX002 (ip), vehicle: Klucel (hydroxypropylcellulose) (HPC) 104 % of control | [2] 97 % of control | dose: 200.0 mg/kg/injection, schedule: Q01DX009 (ip), vehicle: saline 100 % of control | dose: 200.0 mg/kg/injection, schedule: Q04DX002 (ip), vehicle: Klucel (hydroxypropylcellulose) (HPC) 97 % of control | [3] 94 % of control | dose: 400.0 mg/kg/injection, schedule: Q01DX009 (ip), vehicle: saline 107 % of control | dose: 400.0 mg/kg/injection, schedule: Q04DX002 (ip), vehicle: Klucel (hydroxypropylcellulose) (HPC) 104 % of control | [4] 90 % of control

CN(C)c1ccc(/C=C/C=N/Nc2nnc(N/N=C/C=C/c3ccc(N(C)C)cc3)c3ccccc23)cc1
inactive: dose: 50.0 mg/kg/injection, schedule: Q01DX001 (ip), vehicle: other 109 % of control | [5] 100 % of control | dose: 200.0 mg/kg/injection, schedule: Q01DX001 (ip), vehicle: other 103 % of control | dose: 400.0 mg/kg/injection, schedule: Q01DX001 (ip), vehicle: other 100 % of control

CCCCCCCCCCCc1cccc2ccccc12
inactive: dose: 50.0 mg/kg/injection, schedule: Q04DX002 (ip), vehicle: saline with Tween-80 92 % of control | [2] 89 % of control | [3] 92 % of control | [4] 95 % of control

CCC(C)(CC)OC(N)=O
inactive: [6] 100 % of control | dose: 25.0 mg/kg/injection, schedule: Q01DX009 (ip), vehicle: saline with Tween-80 102 % of control | dose: 25.0 mg/kg/injection, schedule: Q04DX003 (ip), vehicle: saline 100 % of control | dose: 50.0 mg/kg/injection, schedule: Q01DX009 (ip), vehicle: saline with Tween-80 94 % of control | dose: 50.0 mg/kg/injection, schedule: Q04DX003 (ip), vehicle: saline 100 % of control | dose: 100.0 mg/kg/injection, schedule: Q01DX009 (ip), vehicle: saline with Tween-80 105 % of control | [7] 102 % of control | dose: 200.0 mg/kg/injection, schedule: Q01DX009 (ip), vehicle: saline with Tween-80 93 % of control | dose: 200.0 mg/kg/injection, schedule: Q04DX003 (ip), vehicle: saline 96 % of control

CCCCCO/N=C\c1c2c(O)c3c(O)c(C)c4c(c3c1O)C(=O)C(C)(O/C=C\C(OC)C(C)C(OC(C)=O)C(C)C(O)C(C)C(O)C(C)/C=C\C=C(\C)C(=O)N2)O4 (centres undefined)
inactive: dose: 50.0 mg/kg/injection, schedule: Q04DX003 (ip), vehicle: water 100 % of control | dose: 100.0 mg/kg/injection, schedule: Q04DX003 (ip), vehicle: water 94 % of control | dose: 200.0 mg/kg/injection, schedule: Q04DX003 (ip), vehicle: water 100 % of control | dose: 400.0 mg/kg/injection, schedule: Q04DX003 (ip), vehicle: water 102 % of control

CC(=O)Nc1cc([N+](=O)[O-])ccc1O
inactive: [8] 101 % of control | [9] 101 % of control | [10] 101 % of control

Nc1nc(=S)nc(N)[nH]1
inactive: dose: 25.0 mg/kg/injection, schedule: Q01DX009 (ip), vehicle: saline 101 % of control | [11] 103 % of control | [1] 97 % of control

CCOC(=O)NC1Cc2cc(C)cc(C)c21 (centres undefined)
inactive: dose: 10.0 mg/kg/injection, schedule: Q04DX002 (ip), vehicle: Klucel (hydroxypropylcellulose) (HPC) 120 % of control | dose: 20.0 mg/kg/injection, schedule: Q04DX002 (ip), vehicle: Klucel (hydroxypropylcellulose) (HPC) 100 % of control | dose: 40.0 mg/kg/injection, schedule: Q04DX002 (ip), vehicle: Klucel (hydroxypropylcellulose) (HPC) 103 % of control

CC(C)([NH-])CO.CC(C)([NH-])CO.[Cl][Cd][Cl]
inactive: dose: 3.13 mg/kg/injection, schedule: Q01DX009 (ip), vehicle: saline sonified 98 % of control | dose: 5.0 mg/kg/injection, schedule: Q01DX009 (ip), vehicle: saline 96 % of control | dose: 6.25 mg/kg/injection, schedule: Q01DX009 (ip), vehicle: saline sonified 96 % of control | dose: 6.25 mg/kg/injection, schedule: Q04DX003 (ip), vehicle: saline sonified 95 % of control | dose: 10.0 mg/kg/injection, schedule: Q01DX009 (ip), vehicle: saline 100 % of control | dose: 10.0 mg/kg/injection, schedule: Q04DX003 (ip), vehicle: alcohol 93 % of control | dose: 12.5 mg/kg/injection, schedule: Q01DX009 (ip), vehicle: saline sonified 98 % of control | dose: 12.5 mg/kg/injection, schedule: Q04DX003 (ip), vehicle: saline sonified 92 % of control | dose: 20.0 mg/kg/injection, schedule: Q04DX003 (ip), vehicle: alcohol 89 % of control

COc1c(CO)c2c(c(OC)c1OC)-c1ccc(OC)c(=O)cc1[C@@H](NC(C)=O)CC2
inactive: dose: 33.0 mg/kg/injection, schedule: Q01DX015 (ip), vehicle: saline 122 % of control

O=C(NO)C(=O)NCc1ccccc1
inactive: dose: 100.0 mg/kg/injection, schedule: Q01DX001 (ip), vehicle: carboxymethylcellulose (CMC) 90 % of control | dose: 200.0 mg/kg/injection, schedule: Q01DX001 (ip), vehicle: carboxymethylcellulose (CMC) 96 % of control | dose: 400.0 mg/kg/injection, schedule: Q01DX001 (ip), vehicle: carboxymethylcellulose (CMC) 96 % of control

NCCO[Si](OCCN)(OCCN)OCCN
inactive: [11] 93 % of control | [1] 88 % of control

CCOc1ccc(N2C(C#N)c3ccccc3OC2c2ccccc2O)cc1 (centres undefined)
inactive: [12] 97 % of control | [13] 97 % of control | [14] 101 % of control

C/C(CC(O)(C(F)(F)F)C(F)(F)F)=N\N1CCCCCC1
inactive: [8] 97 % of control | [9] 103 % of control | [10] 94 % of control

OCCc1c[nH]c2ccccc12
inactive: [8] 97 % of control | [9] 94 % of control | [10] 97 % of control

CC(=O)OCCC/C(=C\c1ccc(F)cc1)[N+](=O)[O-]
inactive: [5] 111 % of control

CCCCCCCCCCCCCCCCCCCCC(C(=O)O)S(=O)(=O)O (centres undefined)
inactive: [7] 95 % of control | dose: 400.0 mg/kg/injection, schedule: Q04DX003 (ip), vehicle: saline 96 % of control

O=C1C(Cl)=CC(=NS(=O)(=O)c2ccccc2)C=C1Cl
inactive: dose: 6.25 mg/kg/injection, schedule: Q01DX009 (ip), vehicle: saline with Tween-80 96 % of control | [6] 96 % of control

CC(=O)OC1c2ccccc2C(=O)C1(OC(C)=O)c1ccccc1 (centres undefined)
inactive: [12] 101 % of control | [8] 97 % of control | [13] 107 % of control | [9] 100 % of control | [14] 101 % of control | [10] 102 % of control
